Measured values taken from article PMC6985722 (Antimicrobial Agents and Chemotherapy, 2020).

Legend:
RSV-A Memphis-37b [1] = experiment: RSV human challenge study: disease severity (total symptom score, nasal mucus weight); assay type: in vivo
Method: (§1) Subjects were screened outside the RSV season for eligibility, including measurement of RSV-A Memphis-37b-specific neutralizing antibody titer, ≤90 days before virus challenge. Eligible subjects were admitted to the quarantine unit on day −2 or day −1 and were inoculated intranasally on day 0 with the challenge virus, RSV-A Memphis-37b (4 log10 PFU/ml, given as one 0.4-ml installation per naris), as previously described ([26]). Nasal wash sampling every 12 h for confirmation of RSV infection by qualitative integrated cycler PCR ([12], [19]) began on the morning of day 2. Treatment began 12 h (±1 h) after collection of a nasal wash sample confirming RSV infection or on the evening of day 5 if RSV infection remained unconfirmed by the morning of day 5.
(§2) The study comprised two consecutive cohorts. […] Subjects were discharged on day 12 if nasopharyngeal swab samples tested negative by RSV rapid antigen assay (QuickVue RSV test; Quidel, San Diego, CA, USA). If such tests were positive or if a subject remained symptomatic, quarantine was extended to allow further observation. All subjects were evaluated on day 28 (±3 days).
(§3) Twice-daily collection of nasal wash samples allowed measurement of viral load via RT-qPCR and quantitative culture. RT-qPCR results were reported as PFUe/ml when the standard curve included in each assay contained a known infectious amount (PFU) of RSV, as described previously ([30]). Subjects reported the occurrence and severity of symptoms three times daily using a 10-item subject symptom diary card as previously reported ([12]) (see Supplemental Methods). Throughout the quarantine period, used tissues were collected and weighed daily, and total nasal mucus weight was recorded. PK assessments were based on venous blood samples. Safety assessments included measurement of vital signs, standard 12-lead ECG recordings, spirometry, a complete physical examination, and a respiratory-directed physical examination. AEs were monitored daily, coded according to the Medical Dictionary for Regulatory Activities Version 20.0, and graded according to the National Cancer Institute Common Terminology Criteria for Adverse Events Version 4.0 (see Supplemental Methods for further details).
(§4) The primary efficacy endpoint was AUC for RSV viral load, as measured by RT-qPCR, in nasal wash samples taken twice daily from just before the first dose until discharge (day 12). Viral load data were provided as log10 PFUe/ml; AUC (log10 PFUe/ml · h) was calculated using the trapezoid rule. Secondary efficacy endpoints related to viral load were AUC of RSV viral load, as assessed by quantitative culture, and the following measures, which were each assessed using both RT-qPCR and quantitative culture: peak viral load, time to peak viral load, and time to <1 log10 (for RT-qPCR) or undetectable (for quantitative culture) viral load (considered to occur at the first confirmed undetectable assessment after which no further virus was detected). Secondary efficacy endpoints related to clinical symptoms included AUC total symptom score; peak total symptom score; time to peak total symptom score; and the total weight of nasal mucus produced. Other secondary outcomes were safety, PK, and sequence detection of viral variants (see Supplemental Methods).
All statistical analyses were performed using two-sided testing. Student’s t tests were performed for normally distributed data with a constant variance; otherwise, the Satterthwaite t test or nonparametric tests were used. For the mucus weight analysis, the least-squares mean was calculated from a mixed model with repeated measures, adjusted for baseline mucus weight and treatment group as covariates and subject as a random effect.

[2] = 76 healthy adult males; single and multiple ascending dose; cited from earlier work
RSV-A clinical isolates = test system: RSV-A clinical isolates; parameters: method as in ref 16 = [16]; 16. Cockerill GS , Bedernjak A , Brookes D , Dowey R , Harland R , Johnson SM , Mathews N , Paradowski M , Peeples M , Scott C , Steadman M , Taylor G , Thom M , Thomas E , Ward SE , Watterson D , You; conditions: n = 20 isolates; cited from earlier work
RSV-A Memphis-37b [3] = experiment: RSV human challenge study: viral load in nasal wash by quantitative culture; assay type: in vivo
Method: as §1, §2, §3, §4
The primary efficacy analysis population (the ITT-I analysis set) comprised all randomized subjects who received challenge virus and at least one dose of study drug and met the criterion for laboratory-confirmed RSV infection (presence of detectable RSV). Sensitivity analyses were based on a subset of the ITT-I population who had first detectable RSV infection prior to study drug administration (the ITT-A analysis set) and a fixed time period of 6.5 days (comprising data for all subjects for 6.5 days of evaluation after the first dose, regardless of the staggered commencement of dosing). […]

[4] = preclinical evaluations, including juvenile toxicology studies; cited from earlier work
[5] = test system: RSV-B (panel of 10 clinical strains); experiment: In vitro susceptibility of RSV by plaque assay, RSV-B; assay type: cell-based; conditions: human respiratory syncytial virus
Method: Previous RSV challenge studies achieved antiviral efficacy with peripheral blood trough exposure levels over 3× the protein binding-adjusted in vitro EC90 ([12]). Based on the phase 1 PK data, this level of exposure was predicted to be achieved on or after the first dose in the majority of subjects with a 200-mg dose and to be met or exceeded on or after the first dose in all subjects with a 350-mg dose. The in vitro EC90 was determined using a panel of clinical isolates of RSV (Table S7).
EC50 range (nM) EC90 range (nM)
EC50 and EC 90 were determined by plaque assay.
EC50, 50% effective concentration; EC90, 90% effective concentration; RSV, respiratory

[6] = 200 mg, ITT-I, fixed time period of 6.5 days
[7] = 350 mg, ITT-A, fixed time period of 6.5 days
[8] = 350 mg, ITT-I, fixed time period of 6.5 days

SMILES: NCc1ccc2c(c1)nc(CN1C(=O)C3(CC3)c3ccc(F)cc31)n2CCCC(F)(F)F [RV521]
- AUC of total symptom score, mean (SE) (RSV-A Memphis-37b [1]; 200 mg, ITT-A): 117.9 (35.26) score x hours
- AUC of total symptom score, reduction in mean vs placebo (RSV-A Memphis-37b [1]; 200 mg, ITT-A): 73.06%
- Daily nasal mucus weight, LS mean (RSV-A Memphis-37b [1]; 200 mg, ITT-A): 0.32 g
- Peak total symptom score, mean (SE) (RSV-A Memphis-37b [1]; 200 mg, ITT-A): 2.5 (0.49)
- Time to peak total symptom score, mean (SE) (RSV-A Memphis-37b [1]; 200 mg, ITT-A): 1.82 (0.67) days
- Time to resolution from peak total symptom score, mean (SE) (RSV-A Memphis-37b [1]; 200 mg, ITT-A): 2.73 (0.39) days
- AUC of total symptom score, mean (SE) (RSV-A Memphis-37b [1]; 200 mg, ITT-A, fixed time period of 6.5 days): 117.41 (35.26) score x hours
- AUC total symptom score, mean (SE) (RSV-A Memphis-37b [1]; 200 mg, ITT-I): 111.35 (33.88) score × hours
- Daily nasal mucus weight, LS mean (RSV-A Memphis-37b [1]; 200 mg, ITT-I): 0.33 g
- Time to peak total symptom score, mean (SE) (RSV-A Memphis-37b [1]; 200 mg, ITT-I): 2.08 (0.68) days
- AUC of total symptom score, mean (SE) (RSV-A Memphis-37b [1]; [6]): 111.35 (33.88) score x hours
- AUC of total symptom score, mean (SE) (RSV-A Memphis-37b [1]; 350 mg, ITT-A): 92.98 (26.81) score x hours
- AUC of total symptom score, reduction in mean vs placebo (RSV-A Memphis-37b [1]; 350 mg, ITT-A): 78.75%
- Daily nasal mucus weight, LS mean (RSV-A Memphis-37b [1]; 350 mg, ITT-A): 0.26 g
- Peak total symptom score, mean (SE) (RSV-A Memphis-37b [1]; 350 mg, ITT-A): 2.1 (0.49)
- Time to peak total symptom score, mean (SE) (RSV-A Memphis-37b [1]; 350 mg, ITT-A): 1.26 (0.55) days
- Time to resolution from peak total symptom score, mean (SE) (RSV-A Memphis-37b [1]; 350 mg, ITT-A): 2.44 (0.43) days
- AUC of total symptom score, mean (SE) (RSV-A Memphis-37b [1]; [7]): 92.98 (26.81) score x hours
- AUC total symptom score, mean (SE) (RSV-A Memphis-37b [1]; 350 mg, ITT-I): 82.41 (24.45) score × hours
- Daily nasal mucus weight, LS mean (RSV-A Memphis-37b [1]; 350 mg, ITT-I): 0.27 g
- Time to peak total symptom score, mean (SE) (RSV-A Memphis-37b [1]; 350 mg, ITT-I): 1.56 (0.57) days
- AUC of total symptom score, mean (SE) (RSV-A Memphis-37b [1]; [8]): 82.41 (24.45) score x hours
- Tolerability [2]: well tolerated
- IC50 (RSV-A clinical isolates): 1.4 nM
- AUC of viral load (quantitative culture), mean (SE) (RSV-A Memphis-37b [3]; 200 mg, ITT-A): 53.89 (15.47) hours x log10 PFU/mL
- AUC of viral load (quantitative culture), reduction in mean vs placebo (RSV-A Memphis-37b [3]; 200 mg, ITT-A): 71.47%
- Peak viral load (quantitative culture), mean (SE) (RSV-A Memphis-37b [3]; 200 mg, ITT-A): 1.82 (0.41) log10 PFU/mL
- Time to peak viral load (quantitative culture), mean (SE) (RSV-A Memphis-37b [3]; 200 mg, ITT-A): 3.53 (0.84) days
- Time to undetectable viral load (quantitative culture), median (Q1, Q3) (RSV-A Memphis-37b [3]; 200 mg, ITT-A): 3 (2, 3.5) days
- AUC of viral load (quantitative culture), mean (SE) (RSV-A Memphis-37b [3]; 200 mg, ITT-I): 50.98 (14.89) log10 PFU/ml · h
- AUC of viral load (quantitative culture), reduction in mean vs that of placebo (RSV-A Memphis-37b [3]; 200 mg, ITT-I): 68.60%
- Peak viral load (quantitative culture), mean (SE) (RSV-A Memphis-37b [3]; 200 mg, ITT-I): 1.72 (0.40) log10 PFU/ml
- Time to peak viral load (quantitative culture), mean (SE) (RSV-A Memphis-37b [3]; 200 mg, ITT-I): 3.69 (0.81) days
- Time to undetectable viral load (quantitative culture), median (Q1, Q3) (RSV-A Memphis-37b [3]; 200 mg, ITT-I): 3.0 (2.0, 3.5) (n = 11) days
- Mean viral load at time of peak viral load in placebo arm (day 2; quantitative culture), mean (SE) (RSV-A Memphis-37b [3]; 200 mg, ITT-I): 0.88 (0.30) log10 PFU/ml
- AUC of viral load (quantitative culture), mean (SE) (RSV-A Memphis-37b [3]; [6]): 50.98 (14.89) log10 PFU/mL x hours
- AUC of viral load (quantitative culture), reduction in mean vs placebo (RSV-A Memphis-37b [3]; [6]): 68.60%
- AUC of viral load (quantitative culture), mean (SE) (RSV-A Memphis-37b [3]; 350 mg, ITT-A): 43.76 (14.73) hours x log10 PFU/mL
- AUC of viral load (quantitative culture), reduction in mean vs placebo (RSV-A Memphis-37b [3]; 350 mg, ITT-A): 76.83%
- Peak viral load (quantitative culture), mean (SE) (RSV-A Memphis-37b [3]; 350 mg, ITT-A): 1.81 (0.44) log10 PFU/mL
- Time to peak viral load (quantitative culture), mean (SE) (RSV-A Memphis-37b [3]; 350 mg, ITT-A): 3.47 (0.87) days
- Time to undetectable viral load (quantitative culture), median (Q1, Q3) (RSV-A Memphis-37b [3]; 350 mg, ITT-A): 2.5 (2, 2.5) days
- AUC of viral load (quantitative culture), mean (SE) (RSV-A Memphis-37b [3]; [7]): 43.76 (14.73) log10 PFU/mL x hours
- AUC of viral load (quantitative culture), reduction in mean vs placebo (RSV-A Memphis-37b [3]; [7]): 76.83%
- AUC of viral load (quantitative culture), mean (SE) (RSV-A Memphis-37b [3]; 350 mg, ITT-I): 38.29 (13.36) log10 PFU/ml · h
- AUC of viral load (quantitative culture), reduction in mean vs that of placebo (RSV-A Memphis-37b [3]; 350 mg, ITT-I): 76.42%
- Peak viral load (quantitative culture), mean (SE) (RSV-A Memphis-37b [3]; 350 mg, ITT-I): 1.58 (0.41) log10 PFU/ml
- Time to peak viral load (quantitative culture), mean (SE) (RSV-A Memphis-37b [3]; 350 mg, ITT-I): 3.85 (0.80) days
- Time to undetectable viral load (quantitative culture), median (Q1, Q3) (RSV-A Memphis-37b [3]; 350 mg, ITT-I): 2.5 (2.0, 2.5) (n = 9) days
- Mean viral load at time of peak viral load in placebo arm (day 2; quantitative culture), mean (SE) (RSV-A Memphis-37b [3]; 350 mg, ITT-I): 0.71 (0.32) log10 PFU/ml
- AUC of viral load (quantitative culture), mean (SE) (RSV-A Memphis-37b [3]; [8]): 38.29 (13.36) log10 PFU/mL x hours
- AUC of viral load (quantitative culture), reduction in mean vs placebo (RSV-A Memphis-37b [3]; [8]): 76.42%
- Safety profile [4]: good safety profile
- EC50 ([5]; read-out: EC50 range): 0.4 to 1.4 nM
- EC90 ([5]; read-out: EC90 range): 2 to 10.4 nM
